Measurements as given in patent US20230002359A1, “PESTICIDALLY ACTIVE FUSED BICYCLIC HETEROAROMATIC COMPOUNDS” (priority 2019, published 2023).

How the values were obtained:
Assay type in all cases: in vivo
[1] = test system: Euschistus heros (Neotropical Brown Stink Bug); assay: Example B2: Euschistus heros (neotropical brown stink bug), soybean leaves sprayed, N2 nymphs; conditions: 120 h, application rate of 200 ppm, 5 days after infestation, N2 nymphs, read-out: control in at least one of the two categories (mortality or growth inhibition)
Method: Soybean leaves on agar in 24-well microtiter plates were sprayed with aqueous test solutions prepared from 10′000 ppm DMSO stock solutions. After drying the leaves were infested with N2 nymphs. The samples were assessed for mortality and growth inhibition in comparison to untreated samples 5 days after infestation.

[2] = test system: Diabrotica Balteata (Corn Root Worm); assay: Example B1: Diabrotica balteata (corn root worm), maize sprouts sprayed, L2 larvae; conditions: 96 h, application rate of 200 ppm, 4 days after infestation, L2 larvae, read-out: control in at least one of the two categories (mortality or growth inhibition)
Procedure, shortened: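 Spray test: maize sprouts on agar, aqueous dilutions of 10′000 ppm DMSO stock; after drying, 6–10 L2 larvae/well. Read-out at 4 d post-infestation: mortality and growth inhibition vs untreated.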

[3] = test system: Myzus persicae (Green Peach Aphid); assay: Example B6: Myzus persicae (green peach aphid) intrinsic activity, sucrose solution; conditions: 120 h, test rate of 12 ppm, 5 days after infestation, intrinsic activity, read-out: mortality
Procedure, shortened: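 Mortality was read 5 days after infestation. Aphids on pea seedlings fed through a stretched Parafilm membrane on inverted 24-well plates containing sucrose solution mixed with test compound, which was diluted from 10′000 ppm DMSO stock.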

[4] = test system: Plutella xylostella (Diamond Back Moth); assay: Example B4: Plutella xylostella (diamond back moth), artificial diet, eggs, 24-well; conditions: 192 h, application rate of 200 ppm, 8 days after infestation, eggs, read-out: control in at least one of the two categories (mortality or growth inhibition)
Method: 24-well microtiter plates with artificial diet were treated with aqueous test solutions prepared from 10′000 ppm DMSO stock solutions by pipetting. After drying, Plutella eggs were pipetted through a plastic stencil onto a gel blotting paper and the plate was closed with it. The samples were assessed for mortality and growth inhibition in comparison to untreated samples 8 days after infestation.

[5] = test system: Chilo suppressalis (Striped Rice Stemborer); assay: Example B3: Chilo suppressalis (striped rice stemborer), artificial diet, L2 larvae; conditions: 144 h, application rate of 200 ppm, 6 days after infestation, L2 larvae, read-out: control in at least one of the three categories (mortality, anti-feedant effect, or growth inhibition)
Procedure, shortened: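 Artificial diet in wells was treated with aqueous test solutions diluted from 10'000 ppm DMSO stocks, dried, then infested with 6-8 L2 larvae per well. Mortality, anti-feeding effect and growth inhibition were scored against untreated samples 6 days after infestation; control means any category exceeds the untreated sample.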

[6] = test system: Myzus persicae (Green Peach Aphid); assay: Example B5: Myzus persicae (green peach aphid) feeding/contact activity, sunflower leaf discs; conditions: foliar, 144 h, application rate of 200 ppm, 6 days after infestation
Method: Sunflower leaf discs were placed onto agar in a 24-well microtiter plate and sprayed with aqueous test solutions prepared from 10′000 ppm DMSO stock solutions. After drying, the leaf discs were infested with an aphid population of mixed ages. The samples were assessed for mortality 6 days after infestation.

[7] = test system: Spodoptera littoralis (Egyptian Cotton Leaf Worm); assay: Example B7: Spodoptera littoralis (Egyptian cotton leaf worm), cotton leaf discs sprayed, L1 larvae; conditions: foliar, 72 h, application rate of 200 ppm, 3 days after infestation, L1 larvae, read-out: control in at least one of the three categories (mortality, anti-feedant effect, or growth inhibition)
Procedure, shortened: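 Read-out: mortality, feeding deterrence and growth inhibition, assessed 3 days after infestation relative to untreated samples. Sprayed, dried cotton leaf discs on agar each received five first-instar (L1) larvae; sprays were aqueous solutions prepared from 10′000 ppm DMSO stocks.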

C[C@@H](c1ncnn1-c1ncccn1)N(C)c1ncnc2c(OC(F)F)cc(Cl)cc12 [P.90, 6-chloro-8-(difluoromethoxy)-N-methyl-N-[(1S)-1-(2-pyrimidin-2-yl-1,2,4-triazol-3-yl)ethyl]quinazolin-4-amine]
≥ 80%: percent control (mortality or growth inhibition) at 200 ppm [1] | percent control (mortality or growth inhibition) at 200 ppm [2] | mortality at 12 ppm [3] | percent control (mortality or growth inhibition) at 200 ppm [4] | percent control (mortality, anti-feedant effect or growth inhibition) at 200 ppm [5] | mortality at 200 ppm [6]

CC(c1ncnn1-c1ccc(F)cn1)N(C)c1ncnc2c(C(F)(F)F)cc(Cl)cc12 (stereo not drawn) [P.187, 6-chloro-N-[1-[2-(5-fluoro-2-pyridyl)-1,2,4-triazol-3-yl]ethyl]-N-methyl-8-(trifluoromethyl)quinazolin-4-amine]
≥ 80%: percent control (mortality or growth inhibition) at 200 ppm [1] | percent control (mortality or growth inhibition) at 200 ppm [2] | mortality at 12 ppm [3] | percent control (mortality or growth inhibition) at 200 ppm [4] | percent control (mortality, anti-feedant effect or growth inhibition) at 200 ppm [5] | mortality at 200 ppm [6]

CC(c1ncnn1-c1ccc(F)cn1)N(C)c1ncnc2c(C(F)(F)F)cc(Br)cc12 (stereo not drawn) [P.188, 6-bromo-N-[1-[2-(5-fluoro-2-pyridyl)-1,2,4-triazol-3-yl]ethyl]-N-methyl-8-(trifluoromethyl)quinazolin-4-amine]
≥ 80%: percent control (mortality or growth inhibition) at 200 ppm [1] | percent control (mortality or growth inhibition) at 200 ppm [2] | mortality at 12 ppm [3] | percent control (mortality or growth inhibition) at 200 ppm [4] | percent control (mortality, anti-feedant effect or growth inhibition) at 200 ppm [5] | mortality at 200 ppm [6]

C[C@@H](c1ncnn1-c1ccc(C(N)=S)cn1)N(C)c1ncnc2c(C(F)(F)F)cc(C(F)(F)F)cc12 [P.190, 6-[5-[(1S)-1-[[6,8-bis(trifluoromethyl)quinazolin-4-yl]-methyl-amino]ethyl]-1,2,4-triazol-1-yl]pyridine-3-carbothioamide]
≥ 80%: percent control (mortality or growth inhibition) at 200 ppm [1] | percent control (mortality or growth inhibition) at 200 ppm [2] | mortality at 12 ppm [3] | percent control (mortality or growth inhibition) at 200 ppm [4] | percent control (mortality, anti-feedant effect or growth inhibition) at 200 ppm [5] | mortality at 200 ppm [6]

CC(c1ncnn1-c1ccc(C#N)cn1)N(C)c1ncnc2c(Br)cc(OC(F)(F)F)cc12 (stereo not drawn) [P.217, 6-[5-[1-[[8-bromo-6-(trifluoromethoxy)quinazo-lin-4-yl]-methyl-amino]ethyl]-1,2,4-triazol-1-yl]pyridine-3-carbonitrile]
≥ 80%: percent control (mortality, anti-feedant effect or growth inhibition) at 200 ppm [7] | percent control (mortality or growth inhibition) at 200 ppm [2] | mortality at 12 ppm [3] | percent control (mortality or growth inhibition) at 200 ppm [4] | percent control (mortality, anti-feedant effect or growth inhibition) at 200 ppm [5] | mortality at 200 ppm [6]

CC(c1ncnn1-c1ccc(OC(F)F)cn1)N(C)c1ncnc2c(C(F)(F)F)cc(Cl)cc12 (stereo not drawn) [P.236, 6-chloro-N-[1-[2-[5-(difluoromethoxy)-2-pyridyl]-1,2,4-triazol-3-yl]ethyl]-N-methyl-8-(trifluoromethyl)quinazolin-4-amine]
≥ 80%: percent control (mortality, anti-feedant effect or growth inhibition) at 200 ppm [7] | percent control (mortality or growth inhibition) at 200 ppm [2] | mortality at 12 ppm [3] | percent control (mortality or growth inhibition) at 200 ppm [4] | percent control (mortality, anti-feedant effect or growth inhibition) at 200 ppm [5] | mortality at 200 ppm [6]

CC(c1ncnn1-c1ncccn1)N(C)c1ncnc2c(Br)cc(Br)cc12 (stereo not drawn) [P.258, 6,8-dibromo-N-methyl-N-[1-(2-pyrimidin-2-yl-1,2,4-triazol-3-yl)ethyl]quinazolin-4-amine]
≥ 80%: percent control (mortality, anti-feedant effect or growth inhibition) at 200 ppm [7] | percent control (mortality or growth inhibition) at 200 ppm [2] | mortality at 12 ppm [3] | percent control (mortality or growth inhibition) at 200 ppm [4] | percent control (mortality, anti-feedant effect or growth inhibition) at 200 ppm [5] | mortality at 200 ppm [6]
